In patent US20240246942A1, “KINASE INHIBITORS FOR THE TREATMENT OF NEURODEGENERATIVE DISEASES” (priority 2020, published 2024):

Key:
Assay in all cases: biochemical
[1] = target: T1, panel of 374 wild-type kinases (Homo sapiens, UniProt Q13237); conditions: read-out: % Enzyme Activity (relative to DMSO controls), kinase PKG2/PRKG2
T1 construct: purchased Reaction Biology Corporation
T1 sequence (Q13237 1-762): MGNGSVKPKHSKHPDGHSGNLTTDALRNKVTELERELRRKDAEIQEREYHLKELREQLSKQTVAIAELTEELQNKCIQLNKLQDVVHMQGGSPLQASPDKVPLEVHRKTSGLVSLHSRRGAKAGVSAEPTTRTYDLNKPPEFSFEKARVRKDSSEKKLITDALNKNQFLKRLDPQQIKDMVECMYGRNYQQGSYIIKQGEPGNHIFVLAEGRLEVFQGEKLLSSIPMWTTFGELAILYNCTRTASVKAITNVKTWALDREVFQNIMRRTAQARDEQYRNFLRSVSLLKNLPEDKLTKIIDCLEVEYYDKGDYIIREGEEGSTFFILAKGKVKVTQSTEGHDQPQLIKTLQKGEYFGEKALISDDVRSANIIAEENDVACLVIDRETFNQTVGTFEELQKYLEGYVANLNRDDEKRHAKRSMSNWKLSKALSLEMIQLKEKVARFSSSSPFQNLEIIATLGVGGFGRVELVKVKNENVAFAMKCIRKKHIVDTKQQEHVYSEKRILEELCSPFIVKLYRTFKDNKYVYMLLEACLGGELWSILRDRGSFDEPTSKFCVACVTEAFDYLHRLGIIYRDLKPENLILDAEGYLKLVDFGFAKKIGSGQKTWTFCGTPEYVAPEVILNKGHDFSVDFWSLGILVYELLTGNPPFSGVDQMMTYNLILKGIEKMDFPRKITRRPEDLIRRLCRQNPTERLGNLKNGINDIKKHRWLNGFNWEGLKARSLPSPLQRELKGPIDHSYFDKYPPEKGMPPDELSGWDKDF

[2] = target: T2, panel of 374 wild-type kinases (Homo sapiens, UniProt O00238); conditions: read-out: % Enzyme Activity (relative to DMSO controls), ALK6/BMPR1B
T2 construct: purchased Reaction Biology Corporation

[3] = target: T3, panel of 374 wild-type kinases (Homo sapiens, UniProt P51956); conditions: read-out: % Enzyme Activity (relative to DMSO controls), NEK3
T3 construct: purchased Reaction Biology Corporation
T3 sequence (P51956 1-506): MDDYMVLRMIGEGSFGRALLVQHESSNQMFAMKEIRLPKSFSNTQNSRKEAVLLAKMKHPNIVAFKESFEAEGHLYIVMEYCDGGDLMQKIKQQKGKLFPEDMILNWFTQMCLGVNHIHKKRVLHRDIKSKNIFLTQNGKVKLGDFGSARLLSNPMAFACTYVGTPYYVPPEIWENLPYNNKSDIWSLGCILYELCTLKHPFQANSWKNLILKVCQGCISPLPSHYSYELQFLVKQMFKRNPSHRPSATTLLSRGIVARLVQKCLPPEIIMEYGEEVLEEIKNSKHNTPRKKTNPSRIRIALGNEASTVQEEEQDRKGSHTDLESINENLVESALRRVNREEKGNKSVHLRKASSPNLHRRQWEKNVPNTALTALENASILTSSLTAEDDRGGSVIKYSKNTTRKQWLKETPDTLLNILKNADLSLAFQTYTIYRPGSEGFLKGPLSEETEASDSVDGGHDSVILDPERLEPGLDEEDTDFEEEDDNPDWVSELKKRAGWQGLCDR

[4] = target: T4, panel of 374 wild-type kinases (Homo sapiens, UniProt P37173); conditions: read-out: % Enzyme Activity (relative to DMSO controls), kinase TGFBR2
T4 construct: purchased Reaction Biology Corporation

[5] = target: T5, panel of 374 wild-type kinases (Homo sapiens, UniProt Q9UF33); conditions: EPHA6, read-out: % Enzyme Activity (relative to DMSO controls)
T5 construct: purchased Reaction Biology Corporation
T5 sequence (Q9UF33 23-1036): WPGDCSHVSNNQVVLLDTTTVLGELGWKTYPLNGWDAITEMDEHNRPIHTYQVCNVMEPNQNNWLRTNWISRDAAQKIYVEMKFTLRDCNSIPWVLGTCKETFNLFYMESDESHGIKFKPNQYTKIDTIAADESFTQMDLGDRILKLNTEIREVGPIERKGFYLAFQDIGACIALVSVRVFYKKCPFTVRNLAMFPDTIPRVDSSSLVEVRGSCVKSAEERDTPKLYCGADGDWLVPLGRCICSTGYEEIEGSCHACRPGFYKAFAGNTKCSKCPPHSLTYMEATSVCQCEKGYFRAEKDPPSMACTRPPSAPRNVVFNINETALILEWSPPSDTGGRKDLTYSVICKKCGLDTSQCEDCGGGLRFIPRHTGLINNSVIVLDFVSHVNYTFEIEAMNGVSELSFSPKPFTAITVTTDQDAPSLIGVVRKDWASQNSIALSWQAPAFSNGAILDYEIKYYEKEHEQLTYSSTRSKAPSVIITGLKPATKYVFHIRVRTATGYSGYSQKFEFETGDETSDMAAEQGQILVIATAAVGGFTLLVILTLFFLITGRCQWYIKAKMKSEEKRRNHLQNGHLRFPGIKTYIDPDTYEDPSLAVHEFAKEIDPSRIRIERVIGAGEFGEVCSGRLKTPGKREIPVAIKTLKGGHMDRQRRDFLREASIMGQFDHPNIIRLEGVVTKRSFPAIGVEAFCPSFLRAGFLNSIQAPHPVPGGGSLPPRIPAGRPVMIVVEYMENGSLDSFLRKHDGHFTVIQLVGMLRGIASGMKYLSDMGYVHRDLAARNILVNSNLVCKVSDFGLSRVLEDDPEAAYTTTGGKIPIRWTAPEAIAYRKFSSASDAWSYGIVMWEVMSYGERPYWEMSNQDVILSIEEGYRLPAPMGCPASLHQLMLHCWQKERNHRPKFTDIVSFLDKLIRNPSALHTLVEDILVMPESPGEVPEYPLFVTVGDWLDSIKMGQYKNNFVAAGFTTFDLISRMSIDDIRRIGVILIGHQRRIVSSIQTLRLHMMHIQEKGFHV

[6] = target: T6, panel of 374 wild-type kinases (Homo sapiens, UniProt P22612); conditions: read-out: % Enzyme Activity (relative to DMSO controls), kinase PKAcg
T6 construct: purchased Reaction Biology Corporation

[7] = target: T7, panel of 374 wild-type kinases (Homo sapiens, UniProt Q86Z02); conditions: read-out: % Enzyme Activity (relative to DMSO controls), HIPK1
T7 construct: purchased Reaction Biology Corporation
T7 sequence (Q86Z02 whole entry): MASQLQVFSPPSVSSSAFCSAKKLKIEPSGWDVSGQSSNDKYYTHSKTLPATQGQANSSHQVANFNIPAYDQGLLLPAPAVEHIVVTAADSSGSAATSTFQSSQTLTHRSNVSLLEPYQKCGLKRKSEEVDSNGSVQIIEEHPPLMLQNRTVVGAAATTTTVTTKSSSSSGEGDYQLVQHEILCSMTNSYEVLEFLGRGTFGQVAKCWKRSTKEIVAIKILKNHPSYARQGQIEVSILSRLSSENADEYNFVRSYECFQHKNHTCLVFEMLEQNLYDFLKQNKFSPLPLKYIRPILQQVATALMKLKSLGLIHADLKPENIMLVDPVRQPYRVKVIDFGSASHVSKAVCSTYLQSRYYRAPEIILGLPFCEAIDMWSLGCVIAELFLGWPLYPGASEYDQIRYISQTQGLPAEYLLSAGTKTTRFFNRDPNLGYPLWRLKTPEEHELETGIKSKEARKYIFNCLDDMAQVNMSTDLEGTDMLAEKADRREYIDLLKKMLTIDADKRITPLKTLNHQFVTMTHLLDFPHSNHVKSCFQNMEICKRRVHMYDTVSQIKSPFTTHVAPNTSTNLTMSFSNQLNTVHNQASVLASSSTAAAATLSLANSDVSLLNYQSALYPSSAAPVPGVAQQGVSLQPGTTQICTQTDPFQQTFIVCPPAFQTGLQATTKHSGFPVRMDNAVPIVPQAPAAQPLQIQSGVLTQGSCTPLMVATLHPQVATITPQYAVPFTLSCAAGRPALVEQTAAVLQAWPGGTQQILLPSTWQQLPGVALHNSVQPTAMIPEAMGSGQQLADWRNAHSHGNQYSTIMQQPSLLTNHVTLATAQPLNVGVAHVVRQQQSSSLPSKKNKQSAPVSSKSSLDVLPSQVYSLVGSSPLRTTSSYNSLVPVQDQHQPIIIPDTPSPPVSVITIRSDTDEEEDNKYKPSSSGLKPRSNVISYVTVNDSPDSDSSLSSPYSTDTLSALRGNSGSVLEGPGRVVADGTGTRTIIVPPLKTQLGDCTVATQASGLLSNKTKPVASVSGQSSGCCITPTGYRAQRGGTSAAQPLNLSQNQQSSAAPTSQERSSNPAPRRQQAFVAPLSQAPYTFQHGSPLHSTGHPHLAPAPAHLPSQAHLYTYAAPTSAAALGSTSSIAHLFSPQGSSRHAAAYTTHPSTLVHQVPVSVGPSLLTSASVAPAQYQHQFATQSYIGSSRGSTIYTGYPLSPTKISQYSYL

T6 sequence (P22612 whole entry): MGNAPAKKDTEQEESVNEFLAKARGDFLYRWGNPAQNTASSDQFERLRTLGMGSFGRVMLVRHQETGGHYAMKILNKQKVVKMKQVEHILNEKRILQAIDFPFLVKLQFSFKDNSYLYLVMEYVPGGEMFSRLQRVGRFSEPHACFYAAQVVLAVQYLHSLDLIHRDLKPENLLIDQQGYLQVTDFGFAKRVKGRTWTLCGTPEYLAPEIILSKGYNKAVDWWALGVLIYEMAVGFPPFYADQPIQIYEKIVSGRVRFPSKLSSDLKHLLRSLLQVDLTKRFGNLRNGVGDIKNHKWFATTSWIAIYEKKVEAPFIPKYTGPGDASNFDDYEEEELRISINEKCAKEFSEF
T4 sequence (P37173 23-567): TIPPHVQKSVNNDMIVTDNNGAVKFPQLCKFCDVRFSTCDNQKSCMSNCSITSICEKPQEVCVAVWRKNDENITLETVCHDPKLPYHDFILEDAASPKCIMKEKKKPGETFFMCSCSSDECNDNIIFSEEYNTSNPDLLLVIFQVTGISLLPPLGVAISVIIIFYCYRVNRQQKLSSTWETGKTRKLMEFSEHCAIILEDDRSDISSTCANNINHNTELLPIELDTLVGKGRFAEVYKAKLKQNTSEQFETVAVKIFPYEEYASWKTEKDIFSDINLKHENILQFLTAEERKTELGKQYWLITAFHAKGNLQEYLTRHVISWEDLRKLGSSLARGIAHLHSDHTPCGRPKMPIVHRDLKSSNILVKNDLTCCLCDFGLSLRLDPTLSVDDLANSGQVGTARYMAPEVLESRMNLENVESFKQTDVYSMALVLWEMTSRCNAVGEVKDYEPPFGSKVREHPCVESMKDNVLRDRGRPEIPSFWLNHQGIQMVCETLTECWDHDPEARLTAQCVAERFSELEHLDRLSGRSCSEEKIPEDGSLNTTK
T2 sequence (O00238 14-502): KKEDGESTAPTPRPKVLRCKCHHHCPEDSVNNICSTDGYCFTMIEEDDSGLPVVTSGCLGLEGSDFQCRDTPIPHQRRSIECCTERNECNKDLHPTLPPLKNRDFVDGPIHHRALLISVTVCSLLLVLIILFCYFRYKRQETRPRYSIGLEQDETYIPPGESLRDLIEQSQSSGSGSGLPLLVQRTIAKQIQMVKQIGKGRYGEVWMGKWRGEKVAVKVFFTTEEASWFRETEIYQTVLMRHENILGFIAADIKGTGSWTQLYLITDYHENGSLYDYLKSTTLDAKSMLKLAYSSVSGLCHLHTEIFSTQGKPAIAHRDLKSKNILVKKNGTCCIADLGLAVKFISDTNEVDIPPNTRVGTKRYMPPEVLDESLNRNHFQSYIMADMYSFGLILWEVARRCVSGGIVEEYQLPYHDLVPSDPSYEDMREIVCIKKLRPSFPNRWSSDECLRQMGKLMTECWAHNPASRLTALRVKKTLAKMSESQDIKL

Row | SMILES | remaining activity at 5 µM [1] | remaining activity at 5 µM [2] | remaining activity at 5 µM [3] | remaining activity at 5 µM [4] | remaining activity at 5 µM [5] | remaining activity at 5 µM [6] | remaining activity at 5 µM [7] | remaining activity at 10 µM ([1]; 10 uM) | remaining activity at 10 µM ([2]; 10 uM) | remaining activity at 10 µM ([3]; 10 uM) | remaining activity at 10 µM ([4]; 10 uM) | remaining activity at 10 µM ([5]; 10 uM) | remaining activity at 10 µM ([6]; 10 uM) | remaining activity at 10 µM ([7]; 10 uM)
1 | O=C(Nc1cnn(-c2csc(C(=O)NC3COC3)c2)c1)Nc1ccccc1Cl [Compound 17, 4-(4-(3-(2-chlorophenyl)ureido)-1H-pyrazol-1-yl)-N-(oxetan-3-yl)thiophene-2-carboxamide] | 101% | 109% | 103% | 113% | 99.5% | 104% | 96.3% |  |  |  |  |  |  | 
2 | O=C(Nc1cnn(-c2csc(C(=O)NC3COC3)c2)c1)Nc1c(F)cccc1Cl [Compound 25, 4-(4-(3-(2-chloro-6-fluorophenyl)ureido)-1H-pyrazol-1-yl)-N-(oxetan-3-yl)thiophene-2-carboxamide] | 101% | 114% | 87.2% | 82.6% | 95.7% | 97.6% | 91.7% |  |  |  |  |  |  | 
3 | Cc1sc(C(=O)NC2COC2)cc1-n1cc(NC(=O)Nc2c(F)cccc2Cl)cn1 [Compound 27, 4-(4-(3-(2-chloro-6-fluorophenyl)ureido)-1H-pyrazol-1-yl)-5-methyl-N-(oxetan-3-yl)thiophene-2-carboxamide] |  |  |  |  |  |  |  | 100% | 104% | 87.5% | 86.8% | 80.2% | 99% | 116%
